Reference: ChEMBL document CHEMBL1144997, “Interaction of cis-(6-benzhydrylpiperidin-3-yl)benzylamine analogues with monoamine transporters: structure-activity relationship study of structurally constrained 3,6-disubstituted piperidine analogues of (2,2-diphenylethyl)-[1-(4-fluorobenzyl)piperidin-4-ylmethyl]amine” (J Med Chem, 2003)

Experiments:
[1] = molecular target: Sodium-dependent serotonin transporter (Rattus norvegicus, UniProt P31652); assay: Binding affinity at serotonin transporter in rat striatum by [3H]citalopram displacement.; format: tissue-based
Sequence of Sodium-dependent serotonin transporter (P31652 whole entry): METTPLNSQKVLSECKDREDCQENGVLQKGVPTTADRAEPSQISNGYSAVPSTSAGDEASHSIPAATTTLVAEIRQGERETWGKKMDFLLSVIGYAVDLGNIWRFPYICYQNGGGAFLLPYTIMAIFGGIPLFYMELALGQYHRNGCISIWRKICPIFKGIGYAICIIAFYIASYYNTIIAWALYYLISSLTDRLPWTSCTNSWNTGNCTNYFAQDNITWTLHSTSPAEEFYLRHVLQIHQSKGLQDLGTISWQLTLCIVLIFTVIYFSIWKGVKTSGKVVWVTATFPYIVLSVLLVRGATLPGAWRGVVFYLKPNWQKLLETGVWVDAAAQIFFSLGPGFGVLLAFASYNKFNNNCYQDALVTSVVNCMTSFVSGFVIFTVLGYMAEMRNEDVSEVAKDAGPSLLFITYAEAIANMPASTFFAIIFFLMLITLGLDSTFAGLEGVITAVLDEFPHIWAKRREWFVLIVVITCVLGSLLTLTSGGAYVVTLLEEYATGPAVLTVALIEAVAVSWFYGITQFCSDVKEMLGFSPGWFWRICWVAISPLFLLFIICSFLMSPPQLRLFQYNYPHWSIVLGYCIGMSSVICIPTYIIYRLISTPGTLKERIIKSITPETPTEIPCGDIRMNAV

[2] = Ratio of [3H]- DA uptake to DAT binding was determined; format: functional
Rattus norvegicus = species: Rattus norvegicus; assay: Inhibition of DAT uptake was determined by measuring the [3H]DA accumulation in rat striatal synaptosomes; format: functional; conditions: Brain
[3] = molecular target: Norepinephrine transporter (Rattus norvegicus, UniProt Q9WTR4); assay: Binding affinity at the norepinephrine transporter in rat striatum by [3H]nisoxetine displacement.; format: tissue-based
Sequence of Norepinephrine transporter (Q9WTR4 whole entry): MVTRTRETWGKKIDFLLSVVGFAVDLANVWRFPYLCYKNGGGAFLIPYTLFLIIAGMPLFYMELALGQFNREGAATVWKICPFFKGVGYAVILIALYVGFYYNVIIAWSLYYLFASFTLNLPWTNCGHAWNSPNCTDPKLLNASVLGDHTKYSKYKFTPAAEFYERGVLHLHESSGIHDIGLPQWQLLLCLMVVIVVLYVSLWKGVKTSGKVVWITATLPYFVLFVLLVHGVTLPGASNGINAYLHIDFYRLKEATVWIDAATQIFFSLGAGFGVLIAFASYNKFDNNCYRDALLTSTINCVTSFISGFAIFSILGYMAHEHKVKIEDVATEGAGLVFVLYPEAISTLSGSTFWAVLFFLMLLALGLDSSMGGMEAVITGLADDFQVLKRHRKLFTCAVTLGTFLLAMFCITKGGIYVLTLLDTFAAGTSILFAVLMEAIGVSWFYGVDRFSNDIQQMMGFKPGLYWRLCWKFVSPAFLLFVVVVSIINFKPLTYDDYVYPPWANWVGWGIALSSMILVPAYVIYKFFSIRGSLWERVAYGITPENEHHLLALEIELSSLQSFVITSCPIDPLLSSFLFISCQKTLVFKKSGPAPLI

[4] = molecular target: Sodium-dependent dopamine transporter (Rattus norvegicus, UniProt P23977); assay: biochemical; format: tissue-based, Striatum
Sequence of Sodium-dependent dopamine transporter (P23977 whole entry): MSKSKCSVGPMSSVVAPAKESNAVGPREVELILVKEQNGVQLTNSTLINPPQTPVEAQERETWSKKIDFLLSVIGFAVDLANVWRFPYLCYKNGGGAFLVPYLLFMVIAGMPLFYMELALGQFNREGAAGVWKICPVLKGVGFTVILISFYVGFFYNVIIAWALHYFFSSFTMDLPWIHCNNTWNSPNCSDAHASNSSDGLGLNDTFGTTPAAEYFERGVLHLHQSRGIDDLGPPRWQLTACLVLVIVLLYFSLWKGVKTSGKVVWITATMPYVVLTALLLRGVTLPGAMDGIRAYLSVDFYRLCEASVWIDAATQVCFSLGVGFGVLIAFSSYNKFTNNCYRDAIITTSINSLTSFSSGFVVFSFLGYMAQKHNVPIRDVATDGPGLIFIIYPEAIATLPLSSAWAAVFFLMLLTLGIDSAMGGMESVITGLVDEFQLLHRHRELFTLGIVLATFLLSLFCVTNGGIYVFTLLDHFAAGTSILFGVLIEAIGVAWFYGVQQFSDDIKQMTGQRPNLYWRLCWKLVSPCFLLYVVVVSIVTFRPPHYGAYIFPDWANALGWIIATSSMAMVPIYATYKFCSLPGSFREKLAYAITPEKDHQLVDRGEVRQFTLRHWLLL
Description: Binding affinity at the dopamine transporter in rast striatum by [3H]WIN-35428 displacement.

| Compound | IC50 [1] | Selectivity ratio [2] | IC50 (Rattus norvegicus) | IC50 [3] | IC50 [4] |
| --- | --- | --- | --- | --- | --- |
| N#Cc1ccc(CN[C@H]2CC[C@@H](C(c3ccccc3)c3ccccc3)NC2)cc1 | 434 nM | 0.8 | 9.1 nM | 1670 nM | 11.3 nM |
| Oc1ccc(CN[C@@H]2CC[C@H](C(c3ccccc3)c3ccccc3)NC2)cc1 | 862 nM |  |  | 201 nM | 65.9 nM |
| c1ccc(C(c2ccccc2)[C@H]2CC[C@@H](NCc3csc4ccccc34)CN2)cc1 | 2770 nM |  |  | 1050 nM | 515 nM |
| Fc1ccc(CN[C@@H]2CC[C@H](C(c3ccccc3)c3ccccc3)NC2)cc1 | 3540 nM | 0.62 | 142 nM | 2290 nM | 229 nM |
| c1ccc(C(c2ccccc2)[C@H]2CC[C@@H](NCc3c[nH]c4ccccc34)CN2)cc1 | 3010 nM |  |  | 3790 nM | 834 nM |
| Fc1ccc(CCNC2CCC(C(c3ccccc3)c3ccccc3)NC2)cc1 (stereo not given) | 2190 nM |  |  | 1740 nM | 173 nM |
| Fc1ccc(CN2CCC(CNCC(c3ccccc3)c3ccccc3)CC2)cc1 |  | 2.5 |  |  |  |
| Fc1ccc(CN[C@H]2CC[C@@H](C(c3ccccc3)c3ccccc3)NC2)cc1 | 1330 nM | 1.6 | 53.8 nM | 1420 nM | 33.8 nM |
| Fc1ccc(CNC2CCC(C(c3ccccc3)c3ccccc3)NC2)cc1 (racemic) |  | 1.4 |  |  |  |
| COc1ccc(CN[C@@H]2CC[C@H](C(c3ccccc3)c3ccccc3)NC2)cc1 | 1040 nM | 0.85 | 40.5 nM | 1110 nM | 47.5 nM |
| c1ccc(CN[C@@H]2CC[C@H](C(c3ccccc3)c3ccccc3)NC2)cc1 | 2130 nM |  |  | 612 nM | 114 nM |
| c1ccc(C(c2ccccc2)[C@H]2CC[C@@H](NCc3cccs3)CN2)cc1 | 3650 nM |  |  | 4730 nM | 267 nM |
| N#Cc1ccc(CN[C@@H]2CC[C@H](C(c3ccccc3)c3ccccc3)NC2)cc1 | 1550 nM | 1.4 | 152 nM | 16600 nM | 109 nM |
| c1ccc(C(c2ccccc2)[C@H]2CC[C@@H](NCc3cc4ccccc4[nH]3)CN2)cc1 | 1800 nM | 0.53 | 51 nM | 1010 nM | 95.4 nM |
| Fc1ccc(CN[C@@H]2CC[C@H](C(c3ccccc3)c3ccccc3)NC2)cc1F | 2250 nM | 1.2 | 77 nM | 1590 nM | 63.5 nM |
